Reference: ChEMBL document CHEMBL4152365, “Discovery of DS-6930, a potent selective PPARγ modulator. Part I: Lead identification” (Bioorg Med Chem, 2018)
In brackets after ≈: the same amount, converted by molar mass. Activity calls are given as the source filed them. The calls are words filed in the database; no cut-off is given here.

Legend:
Rattus norvegicus [1] = test: Toxicity in Wistar-Imamichi rat assessed as reduction in RBC count at 300 mg/kg, po administered via gavage once daily for 28 days relative to control; assay type: organism-based; parameters: scale not given: the % may be the effect or the level left; conditions: in vivo, 672 h
Rattus norvegicus [2] = test: Toxicity in Wistar-Imamichi rat assessed as reduction in RBC count at 30 mg/kg, po administered via gavage once daily for 28 days relative to control; assay type: organism-based; parameters: scale not given: the % may be the effect or the level left; conditions: in vivo, 672 h
Rattus norvegicus [3] = test: Glucose-lowering effect in Zucker diabetic fatty rat assessed as reduction in plasma glucose level at 3 mg/kg, po administered once daily for 14 days measured on day 14 post last dose relative to control; assay type: functional; parameters: scale not given: the % may be the effect or the level left
Rattus norvegicus [4] = test: Toxicity in Wistar-Imamichi rat assessed as reduction in RBC count at 100 mg/kg, po administered via gavage once daily for 28 days relative to control; assay type: organism-based; parameters: scale not given: the % may be the effect or the level left; conditions: in vivo, 672 h
Rattus norvegicus [5] = test: Toxicity in Wistar-Imamichi rat assessed as clinical abnormality at 30 to 300 mg/kg, po administered via gavage once daily for 28 days; assay type: organism-based; conditions: in vivo, 672 h
Rattus norvegicus [6] = test: Toxicity in Wistar-Imamichi rat assessed as reduction in RBC count at 30 to 300 mg/kg, po administered via gavage once daily for 28 days; assay type: organism-based; conditions: in vivo, 672 h
Rattus norvegicus [7] = test: Toxicity in Wistar-Imamichi rat assessed as effect on hemodilution by measuring increase in heart weight at 30 to 300 mg/kg, po administered via gavage once daily for 28 days; assay type: organism-based; conditions: in vivo, 672 h
Rattus norvegicus [8] = test: Toxicity in Zucker diabetic fatty rat assessed as body weight gain at 3 mg/kg, po administered once daily for 14 days relative to control; assay type: organism-based; conditions: in vivo, 336 h
Rattus norvegicus [9] = test: Toxicity in Wistar-Imamichi rat assessed as elevation in ALT activity at 30 to 300 mg/kg, po administered via gavage once daily for 28 days; assay type: organism-based; conditions: in vivo, 672 h
Rattus norvegicus [10] = test: Toxicity in Wistar-Imamichi rat assessed as elevation in AST activity at 30 to 300 mg/kg, po administered via gavage once daily for 28 days; assay type: organism-based; conditions: in vivo, 672 h
Rattus norvegicus [11] = test: Toxicity in Wistar-Imamichi rat assessed as effect on hemodilution by measuring increase in heart weight at 100 mg/kg, po administered via gavage once daily for 28 days; assay type: organism-based; conditions: in vivo, 672 h
Rattus norvegicus [12] = test: Toxicity in Wistar-Imamichi rat assessed as death at 30 to 300 mg/kg, po administered via gavage once daily for 28 days; assay type: organism-based; conditions: in vivo, 672 h
Mus musculus [13] = test: Glucose-lowering effect in hyperglycemic KK/Ta mouse assessed as reduction in plasma glucose level at 30 mg/kg/day, po administered through diet for 3 days relative to control; assay type: functional; parameters: scale not given: the % may be the effect or the level left
[14] = Clearance in cynomolgus monkey at 1 mg/kg, iv by LC-MS/MS analysis; assay type: ADME, organism-based, Macaca fascicularis; conditions: in vivo
[15] = Cmax in cynomolgus monkey at 3 mg/kg, po by LC-MS/MS analysis; assay type: ADME, organism-based, Macaca fascicularis; parameters: dose 3 mg/kg, route oral; conditions: in vivo
[16] = Cmax in Zucker diabetic fatty rat at 3 mg/kg, po dosed once daily for 14 days and followed by additional administeration on day 15; assay type: ADME, organism-based; parameters: dose 3 mg/kg, route oral; conditions: in vivo
[17] = target: T1, Peroxisome proliferator-activated receptor alpha (Homo sapiens, UniProt Q07869); test: Agonist activity at recombinant human GAL4-DBD fused PPARalpha LBD expressed in COS7 cells after 24 hrs by luciferase reporter gene assay; assay type: cell-based
T1 sequence (Q07869 whole entry): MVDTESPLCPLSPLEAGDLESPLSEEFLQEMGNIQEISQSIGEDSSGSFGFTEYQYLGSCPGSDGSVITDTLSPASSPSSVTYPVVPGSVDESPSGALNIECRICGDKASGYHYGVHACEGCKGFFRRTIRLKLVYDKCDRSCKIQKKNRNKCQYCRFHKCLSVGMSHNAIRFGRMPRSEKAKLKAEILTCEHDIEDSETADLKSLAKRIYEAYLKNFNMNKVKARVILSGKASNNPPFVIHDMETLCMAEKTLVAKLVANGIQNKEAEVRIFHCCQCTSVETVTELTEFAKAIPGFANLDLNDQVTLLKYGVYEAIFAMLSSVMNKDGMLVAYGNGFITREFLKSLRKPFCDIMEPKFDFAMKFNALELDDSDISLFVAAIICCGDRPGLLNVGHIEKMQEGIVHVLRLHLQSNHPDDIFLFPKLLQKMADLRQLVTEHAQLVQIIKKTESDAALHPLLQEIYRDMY

[18] = Aqueous thermodynamic solubility of the compound in pH 6.8 solution up to 4 hrs by HPLC-UV analysis; assay type: physicochemical; conditions: read-out: Therm_solubility
[19] = target: T2, Peroxisome proliferator-activated receptor gamma (Homo sapiens) (UniProt P37231); test: Agonist activity at recombinant human GAL4-DBD fused PPARgamma LBD expressed in COS7 cells at 10 uM after 24 hrs by luciferase reporter gene assay relative to rosiglitazone; assay type: cell-based
T2 sequence (whole entry): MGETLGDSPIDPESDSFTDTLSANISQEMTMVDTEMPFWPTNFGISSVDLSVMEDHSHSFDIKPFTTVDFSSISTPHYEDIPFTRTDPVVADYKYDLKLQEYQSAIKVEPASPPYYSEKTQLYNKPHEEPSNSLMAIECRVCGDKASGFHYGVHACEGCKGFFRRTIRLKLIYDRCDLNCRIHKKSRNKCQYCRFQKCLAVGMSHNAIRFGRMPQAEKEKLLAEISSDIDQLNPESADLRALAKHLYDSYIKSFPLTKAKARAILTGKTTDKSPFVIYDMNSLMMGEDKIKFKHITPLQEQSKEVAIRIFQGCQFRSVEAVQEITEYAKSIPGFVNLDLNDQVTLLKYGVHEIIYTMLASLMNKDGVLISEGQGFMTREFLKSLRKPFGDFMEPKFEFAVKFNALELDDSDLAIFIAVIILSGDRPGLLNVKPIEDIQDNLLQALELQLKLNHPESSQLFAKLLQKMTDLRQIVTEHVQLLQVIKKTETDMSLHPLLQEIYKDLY

[20] = Metabolic stability in rat liver microsomes after 0.5 hrs; assay type: ADME, microsome; conditions: read-out: Stability
[21] = 1-octanol/PBS distribution co-efficient, log D of the compound at […] at pH 7.4 after 30 mins by HPLC-MS/MS analysis; assay type: physicochemical
[22] = Tmax in Zucker diabetic fatty rat at 3 mg/kg, po dosed once daily for 14 days and followed by additional administeration on day 15; assay type: ADME, organism-based; conditions: in vivo
[23] = AUClast in cynomolgus monkey at 3 mg/kg, po by LC-MS/MS analysis; assay type: ADME, organism-based, Macaca fascicularis; parameters: dose 3 mg/kg, route oral, time 0 - last; conditions: in vivo
[24] = Oral bioavailability in cynomolgus monkey at 3 mg/kg by LC-MS/MS analysis; assay type: ADME, organism-based, Macaca fascicularis; conditions: in vivo
[25] = Tmax in cynomolgus monkey at 3 mg/kg, po by LC-MS/MS analysis; assay type: ADME, organism-based, Macaca fascicularis; conditions: in vivo
[26] = Metabolic stability in cynomolgus monkey liver microsomes after 0.5 hrs; assay type: ADME, Macaca fascicularis, microsome; conditions: read-out: Stability
[27] = target: T3, Peroxisome proliferator-activated receptor gamma (Homo sapiens, UniProt P37231); test: Agonist activity at recombinant human GAL4-DBD fused PPARgamma LBD expressed in COS7 cells after 24 hrs by luciferase reporter gene assay; assay type: cell-based
T3 sequence (P37231 whole entry): T2 sequence (whole entry)

[28] = Plasma concentration in hyperglycemic KK/Ta mouse at 30 mg/kg/day, po administered through diet for 3 days measured on day 3 post last dose; assay type: ADME, organism-based
[29] = Half life in cynomolgus monkey at 3 mg/kg, po by LC-MS/MS analysis; assay type: ADME, organism-based, Macaca fascicularis; conditions: in vivo
Mus musculus [30] = test: Toxicity in hyperglycemic KK/Ta mouse assessed as body weight gain at 30 mg/kg/day, po administered through diet for 3 days relative to control; assay type: organism-based; conditions: in vivo, 72 h
[31] = Volume of distribution at steady state in cynomolgus monkey at 1 mg/kg, iv by LC-MS/MS analysis; assay type: ADME, organism-based, Macaca fascicularis; conditions: in vivo, read-out: Vdss
[32] = AUC (0 to 24 hrs) in Zucker diabetic fatty rat at 3 mg/kg, po dosed once daily for 14 days and followed by additional administeration on day 15; assay type: ADME, organism-based; parameters: dose 3 mg/kg, time < 24 hr, route oral; conditions: in vivo
[33] = Metabolic stability in human liver microsomes after 0.5 hrs; assay type: ADME, microsome; conditions: read-out: Stability
[34] = target: T4, Peroxisome proliferator-activated receptor alpha (Homo sapiens) (UniProt Q07869); test: Agonist activity at recombinant human GAL4-DBD fused PPARalpha LBD expressed in COS7 cells at 10 uM after 24 hrs by luciferase reporter gene assay relative to 2-(4-tert-Butylphenoxy)-3-[4-[2-[(4-pyridin-2-ylbenzoyl)amino]ethoxy]; assay type: cell-based
T4 sequence (whole entry): T1 sequence (Q07869 whole entry)

[35] = target: T5, Peroxisome proliferator-activated receptor delta (Homo sapiens) (UniProt Q03181); test: Agonist activity at PPARdelta (unknown origin) at 10 uM
T5 sequence (whole entry): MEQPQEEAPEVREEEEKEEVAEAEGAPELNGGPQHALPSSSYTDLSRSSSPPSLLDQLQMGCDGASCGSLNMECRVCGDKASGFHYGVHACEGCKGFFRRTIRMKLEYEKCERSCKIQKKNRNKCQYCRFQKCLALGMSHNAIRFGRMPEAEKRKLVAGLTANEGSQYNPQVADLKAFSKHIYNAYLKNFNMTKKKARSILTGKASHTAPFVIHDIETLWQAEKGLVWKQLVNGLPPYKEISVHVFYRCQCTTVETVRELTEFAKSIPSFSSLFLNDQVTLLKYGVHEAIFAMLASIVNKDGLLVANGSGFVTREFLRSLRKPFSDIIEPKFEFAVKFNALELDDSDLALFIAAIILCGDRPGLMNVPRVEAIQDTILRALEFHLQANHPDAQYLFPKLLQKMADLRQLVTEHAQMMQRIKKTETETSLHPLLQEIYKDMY

CN(CCOc1ccc(CC2SC(=O)NC2=O)cc1)c1ccccn1 (stereo not given) [ROSIGLITAZONE]
Activity (Rattus norvegicus [1]): 14.2%
Activity (Rattus norvegicus [2]): 5.9%
Activity (Rattus norvegicus [3]): 40.3%
Activity (Rattus norvegicus [4]): 8.9%
Activity (Rattus norvegicus [5]): Non-Toxic
Activity (Rattus norvegicus [6]): Dose-dependent effect
Activity (Rattus norvegicus [7]): Toxic
Activity (Rattus norvegicus [8]): 12.6%
Activity (Rattus norvegicus [9]): Non-Toxic
Activity (Rattus norvegicus [10]): Non-Toxic
Activity (Rattus norvegicus [11]): 24.7%
Activity (Rattus norvegicus [12]): Non-Toxic

Cc1ccc(Oc2ccc3nc(COc4cccc(C(=O)O)c4)n(C)c3c2)cc1F
Activity (Mus musculus [13]): 56.8%
clearance [14]: 1.8 mL/min/kg
Cmax [15]: 2060 ng/mL
Cmax [16]: 790 ng/mL
EC50 [17]: > 10000 nM
solubility thermodynamic at 4 h [18]: 4.4 µg/mL (≈ 10.8 µM)
Emax [19]: 80%
remaining at 0.5 h [20]: 100%
Activity (Rattus norvegicus [3]): 59.3%
logD at 0.5 h [21]: 2.7
Tmax [22]: 2 h
AUC(0-t) [23]: 8440 ng·h/mL
bioavailability [24]: 28%
Tmax [25]: 1.5 h
remaining at 0.5 h [26]: 91%
EC50 [27]: 4.4 nM
concentration at 72 h [28]: 470 ng/mL
Activity (Rattus norvegicus [8]): 13.8%
half-life [29]: 13.8 h
Activity (Mus musculus [30]): 4.2%
Vd [31]: 0.32 L/kg
AUC at 24 h [32]: 5530 ng·h/mL
remaining at 0.5 h [33]: 91%
Emax [34]: 40%

Cn1c(COc2cccc(C(=O)O)c2)nc2ccc(Oc3cc(F)ccc3F)cc21
Activity (Mus musculus [13]): 51.2%
clearance [14]: 0.8 mL/min/kg
Cmax [15]: 5630 ng/mL
Cmax [16]: 520 ng/mL
EC50 [17]: > 10000 nM
solubility thermodynamic at 4 h [18]: 5.7 µg/mL (≈ 13.9 µM)
Emax [19]: 79%
remaining at 0.5 h [20]: 95%
Activity (Rattus norvegicus [3]): 61.2%
logD at 0.5 h [21]: 1.9
Tmax [22]: 2 h
AUC(0-t) [23]: 40900 ng·h/mL
bioavailability [24]: 65%
Tmax [25]: 1 h
remaining at 0.5 h [26]: 100%
EC50 [27]: 134 nM
concentration at 72 h [28]: 700 ng/mL
Activity (Rattus norvegicus [8]): 9.5%
half-life [29]: 16.1 h
Activity (Mus musculus [30]): 3.3%
Vd [31]: 0.39 L/kg
AUC at 24 h [32]: 3870 ng·h/mL
remaining at 0.5 h [33]: 98%
Emax [34]: 36%

Cc1ccc(Oc2ccc3nc(COc4cccc(C(=O)O)c4)n(C)c3c2)cc1
Activity (Mus musculus [13]): 48.4%
clearance [14]: 3.58 mL/min/kg
Cmax [15]: 1020 ng/mL
Cmax [16]: 1110 ng/mL
EC50 [17]: > 10000 nM
solubility thermodynamic at 4 h [18]: 7.9 µg/mL (≈ 20.3 µM)
Emax [19]: 73%
remaining at 0.5 h [20]: 100%
Activity (Rattus norvegicus [3]): 58.6%
logD at 0.5 h [21]: 2.4
Tmax [22]: 2 h
AUC(0-t) [23]: 4870 ng·h/mL
bioavailability [24]: 34%
Activity [35]: inactive
Tmax [25]: 1 h
remaining at 0.5 h [26]: 100%
EC50 [27]: 40 nM
concentration at 72 h [28]: 510 ng/mL
Activity (Rattus norvegicus [8]): 13%
half-life [29]: 10.4 h
Activity (Mus musculus [30]): 4.8%
Vd [31]: 0.56 L/kg
AUC at 24 h [32]: 7100 ng·h/mL
remaining at 0.5 h [33]: 91%
Emax [34]: 28%
